Test results published in patent US20260226037A1, “MICROTUBULE TARGETING AGENTS” (ARIEL SCIENTIFIC INNOVATIONS LTD., priority 2022, published 2026).

Legend:
RPMI 8226 cells = experiment: XTT cytotoxicity, RPMI 8226; type: cell-based; conditions: Homo sapiens; RPMI 8226, multiple myeloma, non-resistant; read-out: IC50
Method in brief: (§1)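 Cytotoxicity against the tumour cell lines was determined by XTT assay.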

NALM6 cells = experiment: XTT cytotoxicity, NALM6; type: cell-based; conditions: Homo sapiens, NALM-6; NALM6, acute lymphoblastic leukemia, non-resistant; read-out: IC50
MCF7-VP cells = experiment: XTT cytotoxicity, MCF7-VP; type: cell-based
Method in brief: as §1

MES-SA cells = experiment: XTT cytotoxicity, MES-SA; type: cell-based; conditions: Homo sapiens, poorly differentiated uterine sarcoma, non-resistant
Method in brief: as §1

MES-SA/DX5 cells = experiment: XTT cytotoxicity, MES-SA/DX5; type: cell-based
Method in brief: as §1

A2780 cells = experiment: XTT cytotoxicity, A2780; type: cell-based; conditions: Homo sapiens; A2780, ovarian carcinoma, non-resistant
Method: (§2) The cytotoxic activity of the novel family was evaluated against various tumor cells, including myeloma cells, acute lymphoblastic leukemia cells, acute monocytic leukemia cells, chronic myelogenous leukemia cells, pancreatic cancer cells, breast cancer cells, uterine sarcoma cells, cervix adenocarcinoma cells, ovary cancer cells, melanoma cells, osteosarcoma cells, prostate cancer cells, lung cancer cells, neuroblastoma cells and colorectal adenocarcinoma cells by XTT assay.

A2780ADR cells = experiment: XTT cytotoxicity, A2780ADR; type: cell-based
Method: as §2

[1] = Water solubility (microscope images); type: physicochemical; conditions: compared with benzene, furan, thiophene, thiazole or pyridine analogues
From the text: Solubility of the synthesized molecules was compared to equivalent molecules having a benzene, furan, thiophene, thiazole or pyridine group instead of oxazole group (Table 2).

purified tubulin = experiment: Tubulin polymerization, cell-free assay; type: biochemical; conditions: tubulin 2.00 mg/mL; 1, 15 and 30 μM; 37° C., 100 min; vs vehicle
Method: The effect of the compounds on their ability to inhibit tubulin polymerization, was tested against a vehicle control by evaluating polymerization of purified tubulin in a cell-free assay where tubulin (2.00 mg/mL) was exposed to vehicle control or 1, 15 and 30 μM of the compounds (n=2). Polymerizations were tracked by an increase in fluorescence excitation wavelength is 340-360 nm and emission wavelength at 410-460 nm. Fluorescence was monitored at 37° C. every 30 sec for 100 min.

[2] = test system: colchicine binding site on tubulin protein; experiment: EBI competition assay, NALM6 cells; type: cell-based
[3] = test system: colchicine binding site on tubulin protein; experiment: EBI competition assay, HELA cells; type: cell-based
RPMI8226 cells = experiment: Cell cycle distribution by flow cytometry; type: cell-based
Method: Cell cycle arrest is a shared consequence of MTAs treatment. The effects of cell cycle distribution were determined in RPMI8226 cells treated for 6 and 18 hours with a range of concentrations of the molecules. The cells were stained with propidium iodide and cell cycle distribution was measured using a cytoFLEX flow cytometer.

HUVEC cells [4] = experiment: HUVEC tube formation on Matrigel; type: cell-based, human
Method: Endothelial cells seeded on Matrigel are able to form three-dimensional capillary structures with a lumen resembling the first angiogenesis steps.
The analysis of anti-angiogenic effect was performed by exposing HUVEC cells to the compounds and seeding them on Matrigel matrix for 4 hours. During this time, control group formed an extensive network lumen-like structure as compared to partially disorganized cells treated with lower doses of SMS077 and SMS182 and disorganized and rounded cells treated with higher doses of the molecules.

HUVEC cells [5] = experiment: HUVEC wound scratch-healing migration assay; type: cell-based, human
From the text: During angiogenesis, endothelial cells proliferate and migrate chemotactically towards angiogenic signals secreted by tumor cells.

RPMI8226 myeloma cells = experiment: Xenograft murine myeloma model, antitumor efficacy; type: in vivo, mice
Method: In vivo anti-cancer efficacy of the molecules was evaluated in a xenograft murine myeloma model. Male SCID mice (6-8 weeks old) were maintained in accordance with Institutional Animal Care Use Committee guidelines. Mice were housed in the Animal Research Facility of Ariel University and experiments were performed in accordance with approved protocols. […] Mice were sacrificed when mean tumor volume of vehicle treated group reached 1500 mm3, or mice appeared moribund to prevent unnecessary morbidity. Mean tumor volume represents the average of tumor volume in each treatment group during the experiment. The weight of the tumors was measured at the end of the experiment and expressed as mean tumor weight per group. Body weight is expressed as mean body mice weight per group. The individual relative tumor volume (RTV) was defined as Vx/V1, where Vx is the mean tumor volume in mm3 at a given time and V1 at the start of treatment. Relative tumor volume is determined by calculating RTV (%) (mean RTV of treated group)/(mean RTV of control group)). Relative tumor volume inhibition is determined by calculating RTVI (%) (1-RTV %)

[6] = Xenograft murine myeloma model, body weight and toxicity signs; type: in vivo; conditions: intraperitoneally, during the experiment
Method: In vivo anti-cancer efficacy of the molecules was evaluated in a xenograft murine myeloma model. Male SCID mice (6-8 weeks old) were maintained in accordance with Institutional Animal Care Use Committee guidelines. Mice were housed in the Animal Research Facility of Ariel University and experiments were performed in accordance with approved protocols. During the experiment, RPMI8226 myeloma cells in exponential growth were harvested from culture, washed three times with sterile PBS, counted and resuspended in sterile PBS (1.5×10^7cells mouse/0.1 ml PBS) and subcutaneously injected on the right flank of male C.B-17/IcrHsd-Prkdc-scid, […] mice. After two weeks of cells injection, when tumors reached a size between 30-60 mm3, mice were assigned into different groups (n=3-5) and started receiving treatment. Body weights were determined twice weekly along with tumor volume {V=[length×(width)2]/2}measurements using electronical caliper. Mice were sacrificed when mean tumor volume of vehicle treated group reached 1500 mm3, or mice appeared moribund to prevent unnecessary morbidity.
The weight of the tumors was measured at the end of the experiment and expressed as mean tumor weight per group. Body weight is expressed as mean body mice weight per group.

`CCCCCOC(=O)c1[nH]c2c(c1C)C(=O)CC(c1ncco1)C2` (centres unmarked) [SMS077, pentyl 3-methyl-6-(oxazol-2-yl)-4-oxo-4,5,6,7-tetrahydro-1H-indole-2-carboxylate] gave an IC50 (RPMI 8226 cells) of 26 nM, an IC50 (NALM6 cells) of 19 nM and an IC50 (MCF7-VP cells; Homo sapiens, MCF7-VP, breast adenocarcinoma, MRP overexpression) of 560 nM. For the same compound, the “IC50 ratio between resistant and non-resistant cells” value (MCF7-VP cells; MCF7-VP / MCF7) was 1.474, the “sensitivity of resistant subline vs parental cells” value (MCF7-VP cells; MCF7-VP vs MCF7) was “same sensitivity” and the IC50 (MES-SA cells) was 128 nM. The IC50 (MES-SA/DX5 cells; Homo sapiens, MES-SA/DX5, uterine sarcoma, P-gp overexpression) was 65 nM, the “IC50 ratio between resistant and non-resistant cells” value (MES-SA/DX5 cells; MES-SA/DX5 / MES-SA) was 0.508 and the IC50 (A2780 cells) was 16 nM. For the same compound, the “IC50 ratio between resistant and non-resistant cells” value (A2780ADR cells; A2780ADR / A2780) was 1.938, the “resistance of cells to treatment” value (A2780ADR cells; A2780ADR ovary carcinoma cells) was “resistant to vincristine but not to SMS077 treatment” and the IC50 (A2780ADR cells; A2780 ADR, A2780ADR, ovarian carcinoma, resistant) was 31 nM. The water solubility [1] was “better water solubility”, the “rate of tubulin polymerization” value (purified tubulin) was “inhibited the rate of tubulin polymerization in a concentration-dependent manner” and the “binding to the colchicine binding site” value [2] was “bound to the colchicine binding site”. For the same compound, the “binding to the colchicine binding site” value [3] was “bound to the colchicine binding site”, the cell cycle arrest (RPMI8226 cells; 6 hours, IC50, IC50x2.5 and IC50x5 concentrations) was “cell cycle arrest in G2M phase” and the subG0 phase (RPMI8226 cells; 18 hours of treatment) was “increased in subG0 phase”. For the same compound, the “inhibition of tubule formation” value (HUVEC cells [4]; 4 hours) was “dose dependent inhibition of tubule formation”, the “concentration at which tubule formation was significantly inhibited” value (HUVEC cells [4]; 4 hours of treatment) was 75 nM and the “wound healing density (HUVEC migration)” value (HUVEC cells [5]) was “decreased wound healing density in a dose and time dependent manner”. The “decrease of tumor volume as compared to vehicle at the same day” value (from here on “decrease of tumor volume”) (RPMI8226 myeloma cells; day 8, intraperitoneally) was 0%, the “decrease of tumor volume” value (RPMI8226 myeloma cells; day 11, intraperitoneally) was 40% and the “decrease of tumor volume” value (RPMI8226 myeloma cells; day 25, intraperitoneally) was 52%. The “growth inhibition rate (tumor weight at end of experiment)” value (RPMI8226 myeloma cells; intraperitoneally) was 54% and the “body weight and other signs of potential toxicity” value [6] was “No significant changes in body weight or other signs of potential toxicity”.
